The assay has as its system L1210 leukemia ip in BDF1 mice, survival T/C. Put plainly: NCI In Vivo Anticancer Drug Screen. Data for tumor model L1210 Leukemia (intraperitoneal) in B6D2F1 (BDF1) mice. As to conditions: endpoint: mean survival time, higher = longer survival. In a few lines: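 Survival endpoint. Drug-treated group vs vehicle group, expressed as T divided by C. Tumor passaged by transplantation.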

Setting [1] is: dose: 100.0 mg/kg/injection, schedule: Q04DX003 (ip), vehicle: saline with Tween-80.
Setting [2] is: dose: 200.0 mg/kg/injection, schedule: Q04DX003 (ip), vehicle: saline with Tween-80.
The mark [3] stands for this setting: dose: 400.0 mg/kg/injection, schedule: Q04DX003 (ip), vehicle: saline with Tween-80.
The mark [4] stands for this setting: dose: 100.0 mg/kg/injection, schedule: Q04DX002 (ip), vehicle: Klucel (hydroxypropylcellulose) (HPC).
Setting [5] is: dose: 200.0 mg/kg/injection, schedule: Q04DX002 (ip), vehicle: Klucel (hydroxypropylcellulose) (HPC).
[6] abbreviates: dose: 400.0 mg/kg/injection, schedule: Q04DX002 (ip), vehicle: Klucel (hydroxypropylcellulose) (HPC).
Setting [7] is: dose: 50.0 mg/kg/injection, schedule: Q01DX009 (ip), vehicle: Klucel (hydroxypropylcellulose) (HPC).
[8] abbreviates: dose: 100.0 mg/kg/injection, schedule: Q01DX009 (ip), vehicle: Klucel (hydroxypropylcellulose) (HPC).
Where [9] appears, read: dose: 200.0 mg/kg/injection, schedule: Q01DX009 (ip), vehicle: Klucel (hydroxypropylcellulose) (HPC).

Several values for one entry are separate records, joined by “and”; a condition that tells them apart may be missing. Equal entries are not always repeated. Inconclusive results and toxic doses are left out.

Turning to `CC[C@@]1(O)C(=O)OCc2c1cc1n(c2=O)Cc2cc3cc(OC)ccc3nc2-1`, the T/C by setting is: (dose: 0.36 mg/kg/injection, schedule: Q01DX001 (ip), vehicle: saline) 114 % of control; (dose: 0.55 mg/kg/injection, schedule: Q01DX001 (ip), vehicle: saline) 122 % of control; (dose: 0.83 mg/kg/injection, schedule: Q01DX001 (ip), vehicle: saline) 120 % of control; (dose: 0.97 mg/kg/injection, schedule: Q01DX009 (ip), vehicle: saline) 203 % of control; (dose: 1.4 mg/kg/injection, schedule: Q01DX009 (ip), vehicle: saline) 225 % of control; (dose: 2.2 mg/kg/injection, schedule: Q01DX009 (ip), vehicle: saline) 97 % of control. Further, the T/C was 162 % of control (dose: 2.5 mg/kg/injection, schedule: Q01DX001 (ip), vehicle: saline); 160 % of control (dose: 4.4 mg/kg/injection, schedule: Q01DX001 (ip), vehicle: saline); 176 % of control (dose: 5.0 mg/kg/injection, schedule: Q01DX001 (ip), vehicle: saline); 178 % of control (dose: 6.6 mg/kg/injection, schedule: Q01DX001 (ip), vehicle: saline); 172 % of control and 250 % of control (dose: 10.0 mg/kg/injection, schedule: Q01DX001 (ip), vehicle: saline); 122 % of control (dose: 15.0 mg/kg/injection, schedule: Q01DX001 (ip), vehicle: saline). Also, the T/C runs as follows: (dose: 20.0 mg/kg/injection, schedule: Q01DX001 (ip), vehicle: saline) 112 % of control; (dose: 36.0 micrograms/kg/injection, schedule: Q01DX009 (ip), vehicle: saline) 95 % of control; (dose: 56.0 micrograms/kg/injection, schedule: Q01DX009 (ip), vehicle: saline) 104 % of control; (dose: 84.0 micrograms/kg/injection, schedule: Q01DX009 (ip), vehicle: saline) 115 % of control; (dose: 127.0 micrograms/kg/injection, schedule: Q01DX009 (ip), vehicle: saline) 121 % of control; (dose: 287.0 micrograms/kg/injection, schedule: Q01DX009 (ip), vehicle: saline) 123 % of control. Also, the T/C is 117 % of control (dose: 430.0 micrograms/kg/injection, schedule: Q01DX009 (ip), vehicle: saline) and 150 % of control (dose: 646.0 micrograms/kg/injection, schedule: Q01DX009 (ip), vehicle: saline).

On to `CC(N)CSC(=O)c1ccccc1` (stereo not drawn), for which the T/C was 100 % of control under setting [1], 100 % of control under setting [2] and 94 % of control under setting [3].

As to `O=C(O)Cc1n[nH]c(=O)c2ccccc12`, the T/C under setting [4] was 93 % of control, the T/C under setting [5] was 99 % of control and the T/C under setting [6] is 102 % of control.

For `CC1(O)C=CCC1` (stereo not drawn), the T/C was 104 % of control (dose: 75.0 mg/kg/injection, schedule: Q01DX001 (ip), vehicle: carboxymethylcellulose (CMC)) and 102 % of control (dose: 150.0 mg/kg/injection, schedule: Q01DX001 (ip), vehicle: carboxymethylcellulose (CMC)).

Consider `O=C(O)c1ccc2c(=O)[nH][nH]c(=O)c2c1`, for which the T/C is 101 % of control (dose: 87.5 mg/kg/injection, schedule: Q01DX009 (ip), vehicle: Klucel (hydroxypropylcellulose) (HPC)); 96 % of control (dose: 175.0 mg/kg/injection, schedule: Q01DX009 (ip), vehicle: Klucel (hydroxypropylcellulose) (HPC)); 102 % of control (dose: 350.0 mg/kg/injection, schedule: Q01DX009 (ip), vehicle: Klucel (hydroxypropylcellulose) (HPC)).

As to `Cc1ccc(S(=O)(=O)Oc2cc([N+](=O)[O-])ccc2N)cc1`, the T/C runs as follows: (dose: 100.0 mg/kg/injection, schedule: Q01DX009 (ip), vehicle: saline) 103 % of control; (dose: 200.0 mg/kg/injection, schedule: Q01DX009 (ip), vehicle: saline) 105 % of control; (dose: 400.0 mg/kg/injection, schedule: Q01DX009 (ip), vehicle: saline) 100 % of control.

`CCN(CC)CCCCCCNc1ccnc2cc(Cl)ccc12`: the T/C (dose: 50.0 mg/kg/injection, schedule: Q01DX001 (ip), vehicle: carboxymethylcellulose (CMC)) is 95 % of control.

`COc1ccc2c(c1)sc1ncnc(N)c12`: the T/C reads like this: under setting [7], 105 % of control; under setting [8], 105 % of control; under setting [9], 101 % of control.

Take `Cc1ccc([N+](=O)[O-])cc1NC(=O)Nc1ccccc1C(F)(F)F`: the T/C was 93 % of control under setting [8]; 96 % of control under setting [9]; 95 % of control (dose: 400.0 mg/kg/injection, schedule: Q01DX009 (ip), vehicle: Klucel (hydroxypropylcellulose) (HPC)).

Take `O=C(O)c1cccc2cccc(C3SCCS3)c12`: the T/C runs as follows: under setting [1], 101 % of control; under setting [2], 104 % of control; under setting [3], 90 % of control.

As to `CC(C)NNC(C)Cc1ccccc1` (stereo not drawn), the T/C was 104 % of control (dose: 25.0 mg/kg/injection, schedule: Q04DX003 (ip), vehicle: Klucel (hydroxypropylcellulose) (HPC)); 102 % of control (dose: 50.0 mg/kg/injection, schedule: Q04DX003 (ip), vehicle: Klucel (hydroxypropylcellulose) (HPC)); 98 % of control (dose: 100.0 mg/kg/injection, schedule: Q04DX003 (ip), vehicle: Klucel (hydroxypropylcellulose) (HPC)).

For `CCOc1ccc(OCC)c(NC(=O)Nc2cc([N+](=O)[O-])ccc2OC)c1`, the T/C was 114 % of control under setting [7], 93 % of control under setting [8] and 96 % of control under setting [9].

As to `Cc1ccc(NC(=S)N(CCC#N)C2CCCCC2)cc1C`, the T/C was 97 % of control under setting [4], 90 % of control under setting [5] and 90 % of control under setting [6].

For `O=C1c2ccccc2C(=O)N1c1cc(OCc2ccccc2)cc(OCc2ccccc2)c1`, the T/C is 94 % of control (dose: 100.0 mg/kg/injection, schedule: Q01DX009 (ip), vehicle: water); 104 % of control (dose: 100.0 mg/kg/injection, schedule: Q04DX003 (ip), vehicle: water); 91 % of control (dose: 200.0 mg/kg/injection, schedule: Q01DX009 (ip), vehicle: water); 102 % of control (dose: 200.0 mg/kg/injection, schedule: Q04DX003 (ip), vehicle: water); 91 % of control (dose: 400.0 mg/kg/injection, schedule: Q01DX009 (ip), vehicle: water); 102 % of control (dose: 400.0 mg/kg/injection, schedule: Q04DX003 (ip), vehicle: water).

Turning to `NC(=O)N1CCCCC1`, the T/C runs as follows: (dose: 100.0 mg/kg/injection, schedule: Q01DX001 (ip), vehicle: saline) 102 % of control; (dose: 200.0 mg/kg/injection, schedule: Q01DX001 (ip), vehicle: saline) 98 % of control; (dose: 400.0 mg/kg/injection, schedule: Q01DX001 (ip), vehicle: saline) 102 % of control.

Turning to `COc1ccc(NC(=O)CCc2ccccc2)cc1`, the T/C is, setting by setting: (dose: 12.5 mg/kg/injection, schedule: Q01DX001 (ip), vehicle: Klucel (hydroxypropylcellulose) (HPC)) 98 % of control; (dose: 25.0 mg/kg/injection, schedule: Q01DX001 (ip), vehicle: Klucel (hydroxypropylcellulose) (HPC)) 88 % of control; (dose: 50.0 mg/kg/injection, schedule: Q01DX001 (ip), vehicle: Klucel (hydroxypropylcellulose) (HPC)) 93 % of control; (dose: 100.0 mg/kg/injection, schedule: Q01DX001 (ip), vehicle: Klucel (hydroxypropylcellulose) (HPC)) 86 % of control; (dose: 200.0 mg/kg/injection, schedule: Q01DX001 (ip), vehicle: Klucel (hydroxypropylcellulose) (HPC)) 88 % of control; (dose: 400.0 mg/kg/injection, schedule: Q01DX001 (ip), vehicle: Klucel (hydroxypropylcellulose) (HPC)) 91 % of control.

As to `CC(C)Nc1c(C(=O)c2ccccc2)cn(C(C)C)c1-c1ccccc1`, the T/C is, setting by setting: (dose: 50.0 mg/kg/injection, schedule: Q01DX009 (ip), vehicle: saline with Tween-80) 94 % of control; (dose: 100.0 mg/kg/injection, schedule: Q01DX009 (ip), vehicle: saline with Tween-80) 91 % of control; (dose: 200.0 mg/kg/injection, schedule: Q01DX009 (ip), vehicle: saline with Tween-80) 88 % of control.

On to `O=C(O)C(c1ccccc1)P(=S)(c1ccccc1)c1ccccc1` (stereo not drawn), for which the T/C by setting is: (dose: 75.0 mg/kg/injection, schedule: Q01DX001 (ip), vehicle: other) 89 % of control; (dose: 150.0 mg/kg/injection, schedule: Q01DX001 (ip), vehicle: other) 111 % of control.

The values are drawn from PubChem BioAssay AID248 (DTP/NCI, 2004).
